Results taken from article PMC9428149, “Tackling recalcitrant Pseudomonas aeruginosa infections in critical illness via anti-virulence monotherapy” (Nature Communications, 2022).
In brackets after ≈: the same amount, converted by molar mass. Where two headings read alike, the source gives them in different places.

Key:
[1] = system: pyocyanin production in PA14; assay: Pyocyanin production assay; details: Pseudomonas aeruginosa; for activity at 50 µM: PA14, 18 h, read-out: % Production Pyocyanin; for IC50: PA14, read-out: IC50 pyocyanin production
[2] = system: ΔmvfR biofilm; assay: Biofilm formation of ΔmvfR mutant (off-target); details: Pseudomonas aeruginosa, PA14, 24 h, read-out: Biofilm formation, ΔmvfR + compound; PA14 about 100; single replicates (Figure 4c)
[3] = Solubility in iPBS pH 7.4 by HPLC; format: physicochemical; details: isotonic phosphate buffer (iPBS), aqueous with cosolvent or surfactant or cyclodextrin, kinetic from dmso stock; iPBS pH 7.4, HPLC; read-out: Solubility (M) in PBS
How it was run: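 Compounds from 10 mM DMSO stock shaken 4 h at room temperature in iPBS pH 7.4 (10 mM PBS, 2.7 mM KCl, 140 mM NaCl, 0.05% Tween), then filtered. Concentration measured by HPLC-UV against a known standard solution; solubility given as ratio of compound in test solution to standard.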

[4] = target: T1, MvfR protein (MvfRC87) (Pseudomonas aeruginosa, UniProt Q9I4X0); format: binding; details: SPR
T1 construct: The MvfRC87 protein purified as in Xiao et. al., 2006; made in house
T1 sequence (Q9I4X0 87-332): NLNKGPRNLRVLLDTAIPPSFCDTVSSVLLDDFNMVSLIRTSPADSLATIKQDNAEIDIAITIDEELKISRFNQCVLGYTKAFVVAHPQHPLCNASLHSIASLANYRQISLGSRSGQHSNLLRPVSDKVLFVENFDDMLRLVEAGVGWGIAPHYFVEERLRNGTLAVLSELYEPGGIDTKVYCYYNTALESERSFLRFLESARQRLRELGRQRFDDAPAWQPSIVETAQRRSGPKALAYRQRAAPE
How it was run: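 MvfRC87 amine-coupled to a CM7 chip (3000–5000 RU) and binding measured by SPR. Double-reference-corrected responses 5 s before end of association plotted against concentration, for inhibitor alone and with native ligand PQS, compared with responses calculated for different binding sites.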

[5] = system: pqsA promoter (PA14 PpqsA-GFPASV); assay: pqsA-GFP reporter expression; format: cell-based, Pseudomonas aeruginosa; details: Pseudomonas aeruginosa; for activity at 50 µM: PA14, read-out: % Production pqsA-GFP; for IC50: PA14, read-out: IC50 pqsA-GFP expression, PA14, 13 concentrations
[6] = system: mvfR mutant constitutively expressing the pqsABCDE operon; format: cell-based; details: Pseudomonas aeruginosa, control about 100, single replicates (Figure 4a)
[7] = system: MvfR-regulated small molecules in PA14; assay: Production of HAQs, 2-AA, DHQ and AA in PA14 cultures (LC-MS); details: Pseudomonas aeruginosa
Protocol: The HAQs HHQ, PQS, HQNO, and non-HAQs: 2-AA and DHQ produced by PA14 cells were quantified in the presence of NAMs. The overnight grown starter culture was diluted 1:100 in 5 mL LB media in a glass tube and was allowed to grow in the presence (50 µM) or absence of compound at 37 °C and 200 rpm in an incubator shaker until OD600 was 3. Bacterial cultures were subsequently mixed 1:1 (400 μL: 400 μL) with 100% methanol containing 20 ppm (20 μg mL^−1) of tetradeutero-PQS (PQS-D4) and 10 ppm of tetradeutero-HHQ (HHQ-D4) in a 1.5 mL Eppendorf tube. The mixture was vortexed for 5 seconds and spun down for 5 minutes at 12,000 x g. A 700 μL aliquot of the supernatant was removed and stored in glass vials at −20 °C until further liquid chromatography-mass spectrophotometry (LC/MS) analysis as previously described in Lepine et al., 2003[66]. LC/MC analysis was performed using a Micromass Quattro II triple quadrupole mass spectrometer (Micromass Canada, Pointe-Claire, Canada) in positive electrospray ionization mode, interfaced to an HP1100 HPLC equipped with a 4.5 × 150 mm reverse-phase C8 column.
GraphPad Prism 9.2.0 software was used to plot the IC50 curve against the percent inhibition of these small molecules’ production at each concentration.

[8] = system: 16 MDR P. aeruginosa clinical isolates; assay: Pyocyanin production in MDR clinical isolates; details: Pseudomonas aeruginosa, 18 h, Control about 100, replicates
[9] = system: PA14 isogenic mutant ΔmvfR AT/P cells; assay: AT/P cell formation in ΔmvfR mutant (off-target); details: Pseudomonas aeruginosa, PA14, 24 h, read-out: AT/P cell formation, ΔmvfR + compound; PA14 about 100; single replicates (Figure 4b)
Protocol: Cells were grown in the presence of 10 μg mL^−1 meropenem, with or without 10 µM of the compounds for 24 h. Values were normalized to cells grown for 4 h in the absence of antibiotics and compounds. The ∆mvfR cells grown with antibiotics and vehicles were considered control, and the percentage values were calculated compared to control. c Biofilm formation of mutant ∆mvfR cells with or without compound. […] The number of biological replicates for each compound and strain is depicted in the graph. The error bars denote ±SEM.
The AT/P cell formation assay was performed according to the method previously described in Starkey et al., 2014 (persister cell assay). The over-day culture was incubated at 37 °C with shaking at 200 rpm until the culture OD600nm was 3.0. The culture was then diluted at 1:100 and grown in the same conditions for 4 h. After 4 h, 200 µL were collected, and serial dilutions were plated on LB agar plates for CFU quantification (as normalizers). The remainder of the culture was treated with meropenem to a final concentration of 100 × MIC (Minimum Inhibitory Concentration; 10 mg L^−1) and compounds at a final concentration of 10 µM. After 24 h, culture aliquots were 10-fold serially diluted in LB broth and plated on LB agar for CFU quantification. The AT/P fraction was determined as the normalizers (pre-antibiotic) ratio divided by the AT/P fraction (24 h post-antibiotic)[22].

[10] = system: PA14 AT/P cells; assay: AT/P cells formation assay in PA14; format: cell-based, Pseudomonas aeruginosa; details: Pseudomonas aeruginosa, PA14, 24 h, read-out: inhibition of AT/P cells formation
[11] = read-out: DHQ, ΔmvfR-pqsABCD strain
[12] = read-out: HHQ, ΔmvfR-pqsABCD strain
[13] = read-out: HQNO, ΔmvfR-pqsABCD strain
[14] = read-out: PQS, ΔmvfR-pqsABCD strain
[15] = PA14, read-out: % Production 2-AA
[16] = PA14, read-out: % Production AA
[17] = PA14, read-out: % Production DHQ
[18] = PA14, read-out: % Production HHQ
[19] = PA14, read-out: % Production HQNO
[20] = PA14, read-out: % Production PQS
[21] = read-out: Pyocyanin production relative to Control, clinical isolate LGR-4325
[22] = read-out: Pyocyanin production relative to Control, clinical isolate LGR-4326
[23] = read-out: Pyocyanin production relative to Control, clinical isolate LGR-4327
[24] = read-out: Pyocyanin production relative to Control, clinical isolate LGR-4328
[25] = read-out: Pyocyanin production relative to Control, clinical isolate LGR-4330
[26] = read-out: Pyocyanin production relative to Control, clinical isolate LGR-4331 (first section, r117)
[27] = read-out: Pyocyanin production relative to Control, clinical isolate LGR-4331 (second section, r140)
[28] = read-out: Pyocyanin production relative to Control, clinical isolate LGR-4333
[29] = read-out: Pyocyanin production relative to Control, clinical isolate LGR-4343
[30] = read-out: Pyocyanin production relative to Control, clinical isolate LGR-4344
[31] = read-out: Pyocyanin production relative to Control, clinical isolate LGR-4348
[32] = read-out: Pyocyanin production relative to Control, clinical isolate LGR-4356
[33] = read-out: Pyocyanin production relative to Control, clinical isolate LGR-4362
[34] = read-out: Pyocyanin production relative to Control, clinical isolate LGR-4363
[35] = read-out: Pyocyanin production relative to Control, clinical isolate LGR-4364 (first section, r326)
[36] = read-out: Pyocyanin production relative to Control, clinical isolate LGR-4364 (second section, r349)

CC(C(=O)Nc1ccc(C#N)cc1)C(=O)Nc1ccc(C#N)cc1 [D80]
activity at 50 µM [1]: 7%
IC50 [1]: 3600 nM
activity at 10 µM [2]: 42.3%
solubility at 4 h [3]: 2.9e-05 M (≈ 9.23 µg/mL)
Response Unit (RU) ([4]; Concentration 1.00E-05 M): 35.4 RU
Response Unit (RU) ([4]; Concentration 1.00E-06 M): 22.9 RU
Response Unit (RU) ([4]; Concentration 1.00E-07 M): 7 RU
Response Unit (RU) ([4]; Concentration 1.00E-08 M): 0.6 RU
Response Unit (RU) ([4]; Concentration 3.16E-06 M): 30.6 RU
Response Unit (RU) ([4]; Concentration 3.16E-07 M): 13.9 RU
Response Unit (RU) ([4]; Concentration 3.16E-08 M): 2.6 RU
activity at 50 µM [5]: 10%
IC50 [5]: 10600 nM
activity at 50 µM ([6]; read-out: 2-AA, ΔmvfR-pqsABCD strain): 101%
activity at 50 µM [6, 11]: 101%
activity at 50 µM [6, 12]: 96.1%
activity at 50 µM [6, 13]: 86.4%
activity at 50 µM [6, 14]: 99.4%
activity at 50 µM [7, 15]: 16%
activity at 50 µM [7, 16]: 832%
activity at 50 µM [7, 17]: 20%
activity at 50 µM [7, 18]: 8%
activity at 50 µM [7, 19]: 64%
activity at 50 µM [7, 20]: 20%
inhibition at 50 µM ([7]; PA14, read-out: HHQ production inhibition): 89 to 99%
inhibition at 50 µM ([7]; PA14, read-out: HQNO production inhibition): 40 to 92%
inhibition at 50 µM ([7]; PA14, read-out: PQS production inhibition): 76 to 97%
inhibition at 50 µM ([7]; PA14, read-out: inhibition of 2-AA production): 82 to 95%
inhibition at 50 µM ([7]; PA14, read-out: inhibition of DHQ production): 82 to 96%
activity at 10 µM [8, 21]: 40%
activity at 10 µM [8, 22]: 39.5%
activity at 10 µM [8, 23]: 32.3%
activity at 10 µM [8, 24]: 30.6%
activity at 10 µM [8, 25]: 15.3%
activity at 10 µM [8, 26]: 41.5%
activity at 10 µM [8, 27]: 37.9%
activity at 10 µM [8, 28]: 65.7%
activity at 10 µM [8, 29]: 62%
activity at 10 µM [8, 30]: 31.8%
activity at 10 µM [8, 31]: 39.5%
activity at 10 µM [8, 32]: 32.3%
activity at 10 µM [8, 33]: 30.6%
activity at 10 µM [8, 34]: 15.3%
activity at 10 µM [8, 35]: 41.5%
activity at 10 µM [8, 36]: 37.9%
activity at 10 µM [9]: 36%
inhibition at 10 µM [10]: ≥ 51%

N#Cc1ccc(NC(=O)CC(=O)Nc2ccc(Oc3ccccc3)cc2)cc1 [D57]
activity at 50 µM [1]: 6%
IC50 [1]: 240 nM
activity at 10 µM [2]: 23.6%
solubility at 4 h [3]: 7e-06 M (≈ 2.6 µg/mL)
Response Unit (RU) ([4]; Concentration 1.00E-05 M): 33.5 RU
Response Unit (RU) ([4]; Concentration 1.00E-06 M): 18 RU
Response Unit (RU) ([4]; Concentration 1.00E-07 M): 5.7 RU
Response Unit (RU) ([4]; Concentration 1.00E-08 M): 1 RU
Response Unit (RU) ([4]; Concentration 3.16E-06 M): 26.4 RU
Response Unit (RU) ([4]; Concentration 3.16E-07 M): 10.4 RU
Response Unit (RU) ([4]; Concentration 3.16E-08 M): 2.9 RU
activity at 50 µM [5]: 4%
IC50 [5]: 430 nM
activity at 50 µM [6, 11]: 98.7%
activity at 50 µM [6, 12]: 92.2%
activity at 50 µM [6, 13]: 96.6%
activity at 50 µM [6, 14]: 82.3%
activity at 50 µM [7, 15]: 38%
activity at 50 µM [7, 16]: 298%
activity at 50 µM [7, 17]: 65%
activity at 50 µM [7, 18]: 58%
activity at 50 µM [7, 19]: 54%
activity at 50 µM [7, 20]: 36%
activity at 10 µM [8, 21]: 11%
activity at 10 µM [8, 22]: 17.7%
activity at 10 µM [8, 23]: 18.2%
activity at 10 µM [8, 24]: 23.1%
activity at 10 µM [8, 25]: 41.2%
activity at 10 µM [8, 26]: 24.2%
activity at 10 µM [8, 27]: 11.3%
activity at 10 µM [8, 28]: 13.5%
activity at 10 µM [8, 29]: 20.7%
activity at 10 µM [8, 30]: 23.5%
activity at 10 µM [8, 31]: 17.8%
activity at 10 µM [8, 32]: 11%
activity at 10 µM [8, 33]: 33.9%
activity at 10 µM [8, 34]: 20.9%
activity at 10 µM [8, 35]: 21.8%
activity at 10 µM [8, 36]: 27.4%
activity at 10 µM [9]: 32%
inhibition at 10 µM [10]: ≥ 76%
